Data on one compound can be found in BindingDB's records for doi:10.1021/jm501636x (University of Massachusetts Medical School, 2015).

Molecules are shown by their SMILES.

The test is described as follows: Inhibition of PAD4 in C57BL/6 mouse bone marrow neutrophils assessed as inhibition of PMA-stimulated neutrophil extracellular trap formation preincubated for 30 mins followed by PMA stimulation measured after 3 to 4 hrs by DNA/neutrophil elastase overlap assay.

`CC(C)(C)n1nnc([C@H](CCCNC(=N)CCl)NC(=O)c2ccc(-c3ccccc3)cc2)n1`: the EC50 (usually the concentration giving half of the maximal effect) worked out at 20 µM.
